The values below come from patent US12268683B2, “Compounds and methods for synergistic activation of M channels” (THE REGENTS OF THE UNIVERSITY OF CALIFORNIA, priority 2018, dated 2025).

For data set [1], the system named is pentylene tetrazole-induced seizures. In words: PTZ chemoconvulsant assay. The note with it: for clonic seizure incidence: alone. It is filed as in vivo, mouse. From the text: We compared anticonvulsant activities of test compounds in male C57BL/6 mice (Charles River) aged 2-3 months. Mice were housed and used according to the recommendations in the Guide for the Care and Use of Laboratory Animals of the National Institutes of Health (NIH Publication, 8th edition, 2011). The study protocol was approved by the Institutional Animal Care and Use Committee of University of California, Irvine, which confirmed that all relevant ethical regulations were adhered to. Chemicals were sourced from Sigma (St. Louis, Mo., USA). A pentylene tetrazole (PTZ) chemoconvulsant assay was used-. […] Following the PTZ injection, mice were caged individually and an observer (GWA) blinded to the drug used recorded, over 20 min, clonic and tonic seizure incidence, and seizure-related mortality.
We quantified the anticonvulsant activities of (E)-2-dodecenal and tridecanal in male C57BL/6 mice (Charles River, Wilmington, Mass.) aged 2-3 months. The mice were housed and used according to the recommendations in the Guide for the Care and Use of Laboratory Animals of the National Institutes of Health (NIH Publication, 8th edition, 2011). The study protocol was approved by the Institutional Animal Care and Use Committee of University of California, Irvine. The chemicals were sourced from Sigma (St. Louis, Mo., USA). We used a pentylene tetrazole (PTZ) chemoconvulsant assay as we previously described (30). We injected the mice intraperitoneally with (E)-2-dodecenal (2 or 20 mgkg^−1) (with or without 2.5 mgkg^−1 XE991) or tridecanal (20 mgkg^−1) solubilized in PBS, or vehicle control (PBS), and then 30 minutes later we injected mice intraperitoneally with 80 mgkg-PTZ. Following the PTZ injection, the mice were caged individually and an observer (GWA) blinded to the experimental condition timed the latency to first seizure.
We compared anticonvulsant activities of 3FMSG in male C57BL/6 mice (Charles River) aged 2-3 months. Mice were housed and used according to the recommendations in the Guide for the Care and Use of Laboratory Animals of the National Institutes of Health (NIH Publication, 8th edition, 2011). The study protocol was approved by the Institutional Animal Care and Use Committee of University of California, Irvine, which confirmed that all relevant ethical regulations were adhered to. Chemicals were sourced from Sigma (St. Louis, Mo., USA). We used a pentylene tetrazole (PTZ) chemoconvulsant assay as we previously described^27. Mice were injected intraperitoneally with 3FMSG (5 mg kg^−1) or vehicle control (PBS) and then 30 minutes later injected intraperitoneally with 80 mg kg^−1 PTZ. Following the PTZ injection, mice were caged individually and an observer (GWA) blinded to the drug used recorded seizure activity over 20 minutes.

Another data set has as its target KCNA1 (Homo sapiens, UniProt Q09470). In words: TEVC of KCNA1 expressed in Xenopus oocytes. It is filed as cell-based. From the text: cRNA transcripts encoding human KCNA1, KCNQ1, KCNQ2, KCNQ3, KCNQ4, or KCNQ5 were generated by in vitro transcription using the T7 polymerase message machine kit (Thermo Fisher Scientific), after vector linearization, from cDNA sub-cloned into plasmids incorporating X. laevis β-globin 5′ and 3′ UTRs flanking the coding region to enhance translation and cRNA stability. cRNA was quantified by spectrophotometry. Mutant cDNAs were generated by site-directed mutagenesis using a QuikChange kit according to manufacturer's protocol (Stratagene, San Diego, Calif.) and corresponding cRNAs prepared as above. Defolliculated stage V and VI X. laevis oocytes (Ecocyte Bioscience, Austin, Tex.) were injected with Kv channel a subunit cRNAs (10 ng total per oocyte). […]
TEVC recording was performed at room temperature with an OC-725C amplifier (Warner Instruments, Hamden, Conn.) and pClamp10.2 software (Molecular Devices, Sunnyvale, Calif.) 3-5 days after cRNA injection as described in the section above. […] Currents were recorded in response to pulses between −80 and +40 mV at 20 mV intervals, or a single pulse to +40 mV, from a holding potential of −80 mV, to yield current-voltage relationships, current magnitude, and for quantifying activation rate. […]

The conditions of data set [2]: humans; cited from earlier work.

Chain of KCNA1 (Q09470 whole entry): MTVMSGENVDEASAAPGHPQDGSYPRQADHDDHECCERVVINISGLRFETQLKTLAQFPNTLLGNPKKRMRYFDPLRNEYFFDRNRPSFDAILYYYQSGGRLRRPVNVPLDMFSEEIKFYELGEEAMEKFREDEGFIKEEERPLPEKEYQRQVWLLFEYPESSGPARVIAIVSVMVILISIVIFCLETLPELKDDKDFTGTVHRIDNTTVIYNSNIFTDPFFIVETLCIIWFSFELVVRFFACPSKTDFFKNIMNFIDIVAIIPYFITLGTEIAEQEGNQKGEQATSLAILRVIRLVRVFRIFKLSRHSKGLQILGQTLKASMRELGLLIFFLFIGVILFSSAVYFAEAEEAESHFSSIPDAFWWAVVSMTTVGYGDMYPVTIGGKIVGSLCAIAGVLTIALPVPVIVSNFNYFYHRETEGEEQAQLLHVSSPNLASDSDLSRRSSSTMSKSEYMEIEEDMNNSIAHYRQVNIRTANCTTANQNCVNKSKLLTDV

On to `CC(C)CC(=O)O` [IVA, isovaleric acid], for which the clonic seizure incidence result in data set [1] (10 mg/kg i.p.) is on record as “neither compound reduced clonic seizures alone”; in data set [1] (20 mg/kg i.p.) it was “no effect”. In addition, the “suppression of PTZ-induced tonic seizures” value in data set [1] (individually) is “ineffective”. The “effect on KCNA1 (in words)” value on KCNA1 is reported as “did not alter currents”.

Turning to `CC(C)CC(N)=O` [Isovaleramide, isovaleramide], in data set [2], the “mean Tmax” value was 30 to 45 min and the well tolerated dose result is given as “at least 2400 mg per day”.
